The text below walks through data of patent US20230159667A1, “BIOCOMPATIBLE CARRIER FORMULATION FOR APPLICATIONS IN PLANT PROTECTION AND PLANT GROWTH STIMULATION OR IN COSMETICS AND PERSONAL CARE ON THE BASIS OF MODIFIED STARCH” (Amynova Polymers GmbH, priority 2020, published 2023).

Read-outs that look alike come from different tables or passages of the source.

This data set is described as follows: Active ingredient remaining on foliage after rainfall.
Where [1] appears, read: sprayed with the invention as adjuvant vs fungicide alone, 27 mm rainfall 2009, 24 mm 2010.

As to `O=[N+]([O-])c1cc(C(F)(F)F)c(Cl)c([N+](=O)[O-])c1Nc1ncc(C(F)(F)F)cc1Cl` [fluazinam], the “rain fastness on leaves (residues remaining on foliage after rainfall)” value under setting [1] is on record as “Improved rain fastness”.

Consider Mancozeb, for which the “rain fastness on leaves (residues remaining on foliage after rainfall)” value under setting [1] was “Improved rain fastness”. In the case of `COc1ccc(C(=CC(=O)N2CCOCC2)c2ccc(Cl)cc2)cc1OC` [dimethomorph], the “rain fastness on leaves (residues remaining on foliage after rainfall)” value is “Improved rain fastness”.
